Laboratory results from patent publication US20090004683A1, “Indicator Agent for Noninflammatory Stress Response and Use Thereof” (priority 2004, published 2009).

Assays:
Assay type in all cases: in vivo, mouse
LH = assay: Plasma LH after IL-18 administration; conditions: C57B/6 mice, 1.5 μg IL-18 intravenously, 1 hour after administration; FIG. 13C
Protocol: (§1) 1.5 μg of IL-18 prepared by genetic recombination technology was intravenously injected to C57B/6 mice, and thereafter ACTH, FSH and LH levels in blood were examined. […] FIGS. 13B and 13C show FSH and LH levels in plasma collected from mice 1 hour after IL-18 administration. It was shown that the concentrations of FSH and LH in plasma rose with the administration of IL-18.

ACTH = assay: Blood ACTH after IL-18 administration; conditions: C57B/6 mice, 1.5 μg IL-18 intravenously; FIG. 13A
Protocol: as §1

FSH = assay: Plasma FSH after IL-18 administration; conditions: C57B/6 mice, 1.5 μg IL-18 intravenously, 1 hour after administration; FIG. 13B
Protocol: as §1

IL-18: IL-18 prepared by genetic recombination technology
rose: concentration of LH in plasma (LH) | blood ACTH concentration (ACTH) | concentration of FSH in plasma (FSH)
